In US6399782B1, “Benzimidazole inhibitors of fructose 1,6-bisphosphatase” (Metabasis Therapeutics, Inc., priority 1997, dated 2002):
pIC50: −log10 of the molar value.

Experiments:
[1] = test system: rat hepatocytes; test: Inhibition of gluconeogenesis in rat hepatocytes; format: cell-based; settings: glucose production from lactate/pyruvate, isolated rat hepatocytes, 1 hour
Experimental: Hepatocytes were prepared from overnight fasted Sprague-Dawley rats (250-300 g) according to the procedure of Berry and Friend (Berry, M. N., Friend, D. S., 1969, J. Cell. Biol. 43, 506-520) as modified by Groen (Groen, A. K., Sips, H. J., Vervoorn, R. C., Tager, J. M., 1982, Eur. J. Biochem. 122, 87-93). Hepatocytes (75 mg wet weight/mL) were incubated in 1 ml Krebs-bicarbonate buffer containing 10 mM Lactate, 1 mM pyruvate, 1 mg/mL BSA, and test compound concentrations from 1 to 500 μM. Incubations were carried out in a 95% oxygen, 5% carbon dioxide atmosphere in closed, 50-mL Falcon tubes submerged in a rapidly shaking water bath (37° C.). After 1 hour, an aliquot (0.25 mL) was removed, transferred to an Eppendorf tube and centrifuged. 50 μL of supernatant was then assayed for glucose content using a Sigma Glucose Oxidase kit as per the manufacturer's instructions.

Row | melting point | Compound | pIC50 [1] | pIC50 ([1]; Hepatocyte)
1 | – | CC(C)Cn1c(-c2ccc(P(=O)(OCOC(=O)C(C)(C)C)OCOC(=O)C(C)(C)C)o2)nc2c(N)c(Cl)cc(Cl)c21 [Compound 18.2, 4-Amino-5,7-dichloro-1isobutyl-2-(5-furanyl-2-bispivaloyloxymethylphosphonate)benzimidazole] | 4.77 | –
2 | – | CC(C)Cn1c(-c2ccc(P(=O)(O)O)o2)nc2c(N)c(Br)ccc21 [Compound 12.44, 4-Amino-5-bromo-1-isobutyl-2-[2-(5-phosphono)furanyl]benzimidazole] | 4.85 | –
3 | 175 to 180 °C | CC(C)Cn1c(-c2ccc(P(=O)(O)O)o2)nc2c(N)c(F)c(Cl)cc21 [Compound 12.63, 4-Amino-5-fluoro-6-chloro-1-isobutyl-2-(2-phosphono-5-furanyl)benzimidazole] | – | 4.80
4 | 195 to 200 °C | CC(C)Cn1c(-c2ccc(P(=O)(O)O)o2)nc2c(N)c(F)cc(Br)c21 [Compound 12.62, 4-Amino-5-fluoro-7-bromo-1-isobutyl-2-(2-phosphono-5-furanyl)benzimidazole] | – | 5.30
5 | – | CC(C)Cn1c(-c2ccc(P(=O)(O)O)o2)nc2c(N)c(Br)cc(Br)c21 [Compound 12.42, 4-Amino-5,7-dibromo-1-isobutyl-2-[2-(5-phosphono)furanyl]benzimidazole] | 4.85 | –
6 | 205 to 207 °C | CC(C)Cn1c(-c2ccc(P(=O)(O)O)o2)nc2c(N)c(Cl)cc(Cl)c21 [Compound 12.50, 4-Amino-5,7-dichloro-1-isobutyl-2-(2-phosphono-5-furanyl)benzimidazole] | – | 4.77
7 | 196 to 200 °C | Cc1cc(C)c2c(c1)nc(-c1ccc(P(=O)(O)O)o1)n2CC(C)C (hydrate or solvate) [Compound 13.87, 1-Isobutyl-5,7-dimethyl-2-(2-phosphono-5-furanyl)benzimidazole] | – | –
8 | 209 to 212 °C | Cc1cc(C)c2nc(-c3ccc(P(=O)(O)O)o3)n(CC(C)C)c2c1 (hydrate or solvate) [Compound 13.85, 1-Isobutyl-4,6-dimethyl-2-(2-phosphono-5-furanyl)benzimidazole] | – | –
9 | 235 to 236 °C (dec.) | CC(C)Cn1c(-c2ccc(P(=O)(O)O)o2)nc2c(N)c(F)cc(-c3ccc(Cl)cc3)c21 [Compound 12.69, 4-Amino-7-p-chlorophenyl-5-fluoro-1-isobutyl-2-(2-phosphono-5-furanyl)benzimidazole] | – | –
10 | 208 to 211 °C | CC(C)Cn1c(-c2ccc(P(=O)(O)O)o2)nc2cc(F)c(N)c(Br)c21 [Compound 13.69, 1-Isobutyl-5-fluoro-6-amino-7-bromo-2-(2-phosphono-5-furanyl)benzimidazole] | – | –
